# Read-outs that look alike come from different tables or passages of the source.
# T1: human GLUT1 (Homo sapiens, UniProt P11166)
# T1 construct: host or cells: human erythrocytes (endogenous transporter)
# T1 sequence (P11166 1-492): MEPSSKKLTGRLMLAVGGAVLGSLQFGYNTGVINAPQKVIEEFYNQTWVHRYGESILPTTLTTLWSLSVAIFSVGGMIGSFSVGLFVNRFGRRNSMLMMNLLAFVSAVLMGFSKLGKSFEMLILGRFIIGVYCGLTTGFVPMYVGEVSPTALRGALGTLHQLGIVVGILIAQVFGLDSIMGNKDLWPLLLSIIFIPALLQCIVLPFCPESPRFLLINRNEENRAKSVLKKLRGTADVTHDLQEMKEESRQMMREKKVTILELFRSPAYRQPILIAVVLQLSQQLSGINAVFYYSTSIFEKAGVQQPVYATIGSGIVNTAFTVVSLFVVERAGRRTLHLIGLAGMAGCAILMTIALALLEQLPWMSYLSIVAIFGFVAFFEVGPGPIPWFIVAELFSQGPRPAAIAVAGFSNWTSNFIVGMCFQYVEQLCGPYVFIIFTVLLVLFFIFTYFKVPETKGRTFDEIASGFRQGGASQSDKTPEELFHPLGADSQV
# T2: SGLT1 (Homo sapiens, UniProt P13866)
# T2 sequence (P13866 1-664): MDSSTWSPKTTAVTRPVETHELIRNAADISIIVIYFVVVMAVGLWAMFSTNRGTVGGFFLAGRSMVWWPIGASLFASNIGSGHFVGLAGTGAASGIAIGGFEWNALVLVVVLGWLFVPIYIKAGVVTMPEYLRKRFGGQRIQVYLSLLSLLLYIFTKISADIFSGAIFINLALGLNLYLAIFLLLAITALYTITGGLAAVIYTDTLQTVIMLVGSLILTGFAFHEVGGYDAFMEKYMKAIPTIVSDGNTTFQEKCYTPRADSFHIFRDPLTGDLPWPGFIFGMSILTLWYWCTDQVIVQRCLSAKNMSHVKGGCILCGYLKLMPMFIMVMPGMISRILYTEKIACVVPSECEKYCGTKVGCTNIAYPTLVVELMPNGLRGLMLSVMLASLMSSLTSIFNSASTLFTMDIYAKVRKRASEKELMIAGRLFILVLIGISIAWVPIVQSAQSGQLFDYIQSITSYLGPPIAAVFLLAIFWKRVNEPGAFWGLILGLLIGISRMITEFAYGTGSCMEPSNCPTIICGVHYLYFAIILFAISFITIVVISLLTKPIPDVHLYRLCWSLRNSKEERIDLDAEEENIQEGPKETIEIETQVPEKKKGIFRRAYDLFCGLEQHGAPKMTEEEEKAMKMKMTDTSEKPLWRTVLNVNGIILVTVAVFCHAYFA
# How the values were obtained:
# Hexokinase [1] = test system: T3, Hexokinase; experiment: Hexokinase kinetics (Bessel 1972); type: biochemical; details: from Table 2
# T3 construct: Hexokinase Ki; other: Bessel (1972); Hexokinase Vmax; D-glucose = 1; hexokinase maximum velocity lower than that for D-glucose
# Hexokinase [2] = experiment: Hexokinase kinetics (Bessel 1972); type: biochemical
# human GLUT1 = target: T1, human GLUT1; details: cited from earlier work
# Hexokinase [3] = test system: T3, Hexokinase; design: Hexokinase Vmax: unit not given here; details: Bessel (1972), cited from earlier work; for Hexokinase Vmax: D-glucose = 1
# SGLTs [4] = experiment: Whole body PET scan of human subjects; type: in vivo
# Description: For a 50-70 kg person, 10 mC of methyl 4-deoxy-4-[^18F]fluoro-D-glucopyranoside dissolved in <1 ml saline is injected intravenously, and the distribution of the tracer is followed dynamically in whole body PET scans for up to 2 hours (up to 8 scans at different time intervals). SGLT activity in organs and tissues is determined from the tracer uptake. The anatomical location of tracer uptake in both normal subjects and cancer patients is determined using CT scans.
# FIGS. 4 and 5 are nonlimiting examples of 2-[^18F]-FDG and Methyl 4[^18F]-FDG scans, respectively, of the same human subject.
# FIG. 6 is a nonlimiting example of a whole body PET scan of a patient with Glucose-Galactose-Malabsorption (missing functional SGLT1 in their body), after being injected with Me-[18F]-4FDG.
# SGLTs [5] = experiment: MicroPET images of rat's brain after intravenous injection of radiofluorinated glucose derivatives; details: same animal, images 50-70 min after intravenous injection, FIG. 7
# Description: A bolus of a radiolabeled tracer is administered to a non-human primate, rodent, or other non-human mammal, intravenously or orally, and the distribution of tracer transport activity is followed by radiographic means, e.g., PET, microPET and/or SPECT. For PET, an intravenous dose of the tracer contains ˜200 μC/Kg (body weight) methyl 4-[^18F]fluoro-4-deoxy-D-glucopyranoside dissolved in <1 ml saline. […] The identity of each organ and tissue taking up the tracer is confirmed by CT scans.
# FIG. 7 presents MicroPET images of a rat's brain after injection of radiofluorinated glucose derivatives. […] These experiments were performed in the same animal at three different occasions. […] The images were acquired using a Concorde 220 microPET camera (Siemens/CTI, Knoxville, Tenn.). The animal was kept under anesthesia with 2% isoflurane in oxygen during all three experiments. Injectable solutions of all radiotracers were prepared in normal saline (0.9% NaCl).
# [6] = Preliminary microPET studies of brain uptake; details: rodent
# SGLT1 [7] = target: T2, SGLT1; experiment: Affinity for SGLT1; type: biochemical
# Description: A [^11C]-methyl-D-glucoside has been synthesized and biologically evaluated as a tracer of sodium dependent glucose transporters. […] A commentary on this paper was published in the same issue of the journal. […] In addition, three ^18F-fluoro-n-alkyl glucosides have been synthesized and evaluated as potential substrates for sodium/glucose cotransporters. […] There are limitations with these probes in that the lifetime of [^11C] is shorter than that of [^18F]
# Optionally, additional information can be obtained by also administering one or more pharmacological or other agents to the animal, and monitoring the effect of the agent(s) on tracer uptake and distribution. Nonlimiting examples of suitable agents, include sodium ion, glucose, galactose, and phlorizin. […] Any therapeutic agent can also be used to evaluate its potential role and in vivo activity on SGLTs in various organs, using in vivo competitive kinetics with the radiolabeled tracer.
# [8] = test system: sodium-dependent glucose transporters (SGLTs); experiment: Micro-PET tests in rodents and PET tests in Vervet monkeys and human volunteers: substrate specificity; type: in vivo; details: both anomeric forms
# Description: A nonlimiting example of a radiolabeled tracer according to the present invention is methyl 4-deoxy-4-[^18F]fluoro-D-glucopyranoside (“Me-4-[^18F]-FDG”), synthesized in either of its two anomeric forms, alpha-methyl 4-[^18F]-FDG and beta-methyl 4-[^18F]-FDG, or as a racemic mixture. […] For example, Me-4-[^18F]-FDG is not a substrate for GLUT1 in the blood brain barrier. It is a novel, high affinity tracer for SGLTs in those cells expressing SGLTs.
# SGLTs [9] = experiment: Whole body PET scan of Vervet monkey; type: in vivo; details: FIG. 3
# Description: Scans can be conducted both with and without administering one or more pharmacological agents, e.g., sodium, phlorizin, glucose, galactose, etc.
# FIG. 3 is a nonlimiting example of a methyl 4-[^18F]-FDG whole body PET scan of a Vervet monkey.
# SGLT1 [10] = details: pumped into cells by SGLT1; cited from earlier work
# [11] = substrate: O=C[C@H](O)[C@@H](O)[C@@H](O)[C@H](O)CO; experiment: Kinetics of halogenated hexose transport by human SGLT1 expressed in Xenopus laevis oocytes, electrophysiological assay; type: cell-based; details: other: human SGLT1 in Xenopus laevis oocytes
# Description: (§1) We have expressed human SGLT1 in the Xenopus laevis oocyte expression system and measured the kinetics of halogenated hexose transport using standard electrophysiological assays (see Diez-Sampedro et al. J. Biological Chemistry, 2001, 276: 49188-49194). Table 2 presents kinetic measurements of the SGLT1 affinities of various sugars. […] “Km.” is the Michaelis-Menten constant and refers to the ability of a sugar to be a substrate for a specific enzyme or transporter. The lower the Km, the better the substrate. “Vmax” refers to the maximum velocity of transport (or enzymatic reaction). Km is the concentration of substrate at ½ Vmax. “Ki” is an inhibition constant for a specific enzyme or transporter, obtained by competitive kinetics against a known substrate.
# [12] = substrate: O=C[C@H](O)[C@@H](O)[C@H](O)[C@H](O)CO; experiment: as above; type: cell-based; details: other: human SGLT1 in Xenopus laevis oocytes
# Description: as §1
# [13] = Barnett et al. 1973, read-out: inhibitor constants for sugar uptakes into human erythrocytes
# [14] = Barnett et al. (1973), read-out: GLUT1 Ki
molecule,measurement,setting,value
OCC1OC(O)C(O)C(F)C1O (stereo not drawn),hexokinase affinity lower than that for D-glucose,Hexokinase [1],400 fold
same,hexokinase maximum velocity lower than that for D-glucose,Hexokinase [1],10 fold
same,substrate quality for hexokinase,Hexokinase [2],poor substrates for hexokinase
same,Ki,human GLUT1; [13],~7 mM
same,Ki,human GLUT1; [14],7 mM
same,Hexokinase Vmax,Hexokinase [3],0.1
same,Ki,Hexokinase [3],70 mM
O=C[C@H](O)[C@@H](O)[C@@H](O)[C@H](O)CF,Ki,human GLUT1; [13],~7 mM
"OC[C@H]1OC(F)[C@H](O)[C@@H](O)[C@@H]1O (stereo partly drawn) [1-F-1-deoxy-D-glucose, 1-[^18F]fluoro-1-deoxy-D-glucose]",Ki,human GLUT1; [14],15 mM
"OC[C@H]1OC([18F])[C@H](O)[C@@H](O)[C@@H]1O (stereo partly drawn) [1-F-1-deoxy-D-glucose, 1-[^18F]fluoro-1-deoxy-D-glucose]",substrate quality for hexokinase,Hexokinase [2],poor substrates for hexokinase
"OC[C@H]1OC(O)[C@H](F)[C@@H](O)[C@@H]1O (stereo partly drawn) [2-F-2-deoxy-D-glucose, 2-deoxy-2-[^18F]fluoro-D-glucose]",Ki,human GLUT1; [14],3.6 mM
same,Ki,Hexokinase [3],0.2 mM
"OC[C@H]1OC(O)[C@H]([18F])[C@@H](O)[C@@H]1O (stereo partly drawn) [2-F-2-deoxy-D-glucose, 2-deoxy-2-[^18F]fluoro-D-glucose]","accumulation in the brain and elimination into the urinary bladder, PET","SGLTs [4]; normal human subject, FIGS. 4 and 5",accumulated in the brain and eliminated into the urinary bladder
same,"brain uptake / crossing of the blood-brain barrier, microPET",SGLTs [5],cross the blood-brain barrier and accumulate in the brain
same,Hexokinase Vmax,Hexokinase [3],0.5
O=C[C@H](O)[C@@H](O)[C@H](F)[C@H](O)CO [4-F-4-deoxy-D-glucose],Ki,Hexokinase [3],84 mM
O=C[C@H](O)[C@@H](O)[C@H]([18F])[C@H](O)CO [4-F-4-deoxy-D-glucose],"uptake into brain, microPET",[6],taken up rapidly into rodent brains
same,hexokinase affinity lower than that for D-glucose,Hexokinase [1],400 fold
same,hexokinase maximum velocity lower than that for D-glucose,Hexokinase [1],10 fold
same,substrate quality for hexokinase,Hexokinase [2],poor substrates for hexokinase
same,Hexokinase Vmax,Hexokinase [3],0.1
O=C[C@H](O)[C@@H](O)[C@H](O)[C@H](O)CF [6-F-4-deoxy-D-glucose],Ki,human GLUT1; [13],1.3 mM
same,Ki,human GLUT1; [14],1 mM
O=C[C@H](O)[C@@H](O)[C@H](O)[C@H](O)C[18F] [6-F-4-deoxy-D-glucose],substrate quality for hexokinase,Hexokinase [2],poor substrates for hexokinase
same,Hexokinase Vmax,Hexokinase [3],0
O=C[C@H](O)[C@@H](O)[C@@H](O)[C@H](O)CO [D-galactose],Ki,human GLUT1; [14],90 mM
O=C[C@H](O)[C@@H](O)[C@H](O)[C@H](O)CO [D-glucose],Ki,human GLUT1; [13],~7 mM
same,Ki,human GLUT1; [14],6 mM
same,Hexokinase Vmax,Hexokinase [3],1
same,Ki,Hexokinase [3],0.2 mM
"COC1O[C@H](CO)[C@@H](F)[C@H](O)[C@H]1O (stereo partly drawn) [Me-4-[^18F]-FDG, methyl 4-deoxy-4-[^18F]fluoro-D-glucopyranoside]",Km,SGLT1 [7],50 µM
"COC1O[C@H](CO)[C@@H]([18F])[C@H](O)[C@H]1O (stereo partly drawn) [Me-4-[^18F]-FDG, methyl 4-deoxy-4-[^18F]fluoro-D-glucopyranoside]","excretion into the urinary bladder, whole body PET","SGLTs [4]; patient with Glucose-Galactose-Malabsorption (missing functional SGLT1), FIG. 6",excretion of the tracer into the urinary bladder
same,"brain uptake / crossing of the blood-brain barrier, microPET",SGLTs [5],lack of brain uptake
same,substrate for SGLTs / GLUTs,[8],"substrate for sodium-dependent glucose transporters (SGLTs), but not a substrate for GLUTs"
same,"tracer distribution, whole body PET",SGLTs [9],"accumulated in the liver, heart, and kidneys, but not in the brain and little in the urinary bladder"
same,affinity for SGLT1,SGLT1 [7],50 µM
CO[C@H]1O[C@H](CO)[C@@H](O)[C@H](O)[C@H]1O [alpha-methyl-D-glucopyranoside],concentration in cells above plasma concentrations,SGLT1 [10],≤ 800 fold
"human SGLT1 (Homo sapiens) (protein, expressed in transfected cells; host or cells: Xenopus laevis oocytes) MDSSTWSPKTTAVTRPVETHELIRNAADISIIVIYFVVVMAVGLWAMFSTNRGTVGGFFLAGRSMVWWPIGASLFASNIGSGHFVGLAGTGAASGIAIGGFEWNALVLVVVLGWLFVPIYIKAGVVTMPEYLRKRFGGQRIQVYLSLLSLLLYIFTKISADIFSGAIFINLALGLNLYLAIFLLLAITALYTITGGLAAVIYTDTLQTVIMLVGSLILTGFAFHEVGGYDAFMEKYMKAIPTIVSDGNTTFQEKCYTPRADSFHIFRDPLTGDLPWPGFIFGMSILTLWYWCTDQVIVQRCLSAKNMSHVKGGCILCGYLKLMPMFIMVMPGMISRILYTEKIACVVPSECEKYCGTKVGCTNIAYPTLVVELMPNGLRGLMLSVMLASLMSSLTSIFNSASTLFTMDIYAKVRKRASEKELMIAGRLFILVLIGISIAWVPIVQSAQSGQLFDYIQSITSYLGPPIAAVFLLAIFWKRVNEPGAFWGLILGLLIGISRMITEFAYGTGSCMEPSNCPTIICGVHYLYFAIILFAISFITIVVISLLTKPIPDVHLYRLCWSLRNSKEERIDLDAEEENIQEGPKETIEIETQVPEKKKGIFRRAYDLFCGLEQHGAPKMTEEEEKAMKMKMTDTSEKPLWRTVLNVNGIILVTVAVFCHAYFA",Km,[11],600 µM
same,Km,[12],500 µM

# Source: US8845999B2 (The Regents of the University of California, priority 2005, dated 2014)
